From US7741280B2, “Multimeric molecules, the preparation method thereof and use of same for the preparation of medicaments” (Centre National de la Recherche Scientifique, priority 2002, dated 2010)
Like-named read-outs stand apart in the source and are kept apart here. One block for each molecule: values may come before it. Where a SMILES comes first, the peptide text is derived from it. Bridges are numbered along the chain shown (N, C = ends). Roman numbers before positions name the chains, in order. Where no end group is shown, it is not given here. Side-chain parts run from the residue outwards. [ ]: non-standard residue; d: D form. Ahx = NCCCCCC(=O)O

What was measured:
CD40-CD40L interaction = target: T1, CD40-CD40L interaction (Homo sapiens, UniProt P25942); experiment: Expression of CD95 induced by CD40L on BL41 cells cultured with 3T6-CD40L fibroblasts (flow cytometry); type: cell-based; conditions: for % of inhibition of the expression of CD95 induced by CD40L: BL41 + 3T6-CD40L, 48 hours
T1 construct: they receive a signal via the CD40 molecule, which they express in a constitutive manner; endogenous in cells; host or cells: BL41 Burkitt's lymphoma cells (endogenous CD40), co-cultured with 3T6 fibroblasts transfected with CD40L
T1 sequence (P25942 21-277): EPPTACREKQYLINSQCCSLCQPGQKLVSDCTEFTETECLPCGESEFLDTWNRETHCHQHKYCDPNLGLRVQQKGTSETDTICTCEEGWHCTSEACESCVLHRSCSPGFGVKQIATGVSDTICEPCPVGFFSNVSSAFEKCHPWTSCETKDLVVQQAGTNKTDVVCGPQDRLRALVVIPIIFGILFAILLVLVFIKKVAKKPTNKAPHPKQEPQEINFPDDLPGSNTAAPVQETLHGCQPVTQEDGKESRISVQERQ
Protocol: Then, the affinity of these ligands for the CD40 molecule is evaluated using a biosensor (BIAcore™). The agonist or antagonist effect of the ligands was tested using two simple biological tests. In the first, the expression of the membranous molecule CD95 by transformed B cells (Burkitt's lymphoma) is studied after activation by the CD40-CD40L interaction (Schattner et al., 1996). In such a model, the CD40L partner is expressed on transfected fibroblasts (3T6-CD40L) (Buelens et al., 1997). The BL41 Burkitt's lymphoma cells are incubated with non-transfected 3T6 fibroblasts (FIGS. 3A and 3C) or with 3T6 fibroblasts transfected by CD40L (FIGS. 3B and 3D). After 48 hours, the expression of CD95 is evaluated by flow cytometry. The expression of CD95 is induced in the presence of CD40L (FIG. 3B). A commercial anti-CD40L antibody inhibits the consequences of the CD40-CD40L interaction (FIG. 3D).
The antagonist effect is evaluated by measurement of the decrease in the expression of CD95 induced by the CD40L in the presence of the different chemical ligands (see Table I). With the help of these tests, the most interesting ligands are chosen to evaluate their activity in vivo and in vitro in more complex models.
The lymphoma B cells express the CD95 molecule when they receive a signal via the CD40 molecule, which they express in a constitutive manner. This signal is generally conveyed by the CD40L (CD154) molecule expressed by another cell. The antagonist ligands inhibit the binding of CD40 on CD40L and thus […] the expression of CD95. The agonist ligands copy the CD40L molecule and induce the expression of CD95 even in the absence of the cell expressing CD40L.
The BL41 Burkitt's lymphoma cells (5.10^5/ml) are cultured in the presence of 3T6 fibroblasts (10^5/ml) transfected (3T6-CD40L) or not transfected with CD40L (3T6), and treated with mitomycin to stop their proliferation. The ligands are added at the start of the culture at the chosen concentration. After culture for 48 hours, expression of the CD95 molecule is measured by flow cytometry. The BL41 cells are distinguished from the fibroblasts using an anti-CD19 antibody (specific marker of the B cells).

[1] = target: T2, human CD40 muIg fusion protein (UniProt P01863+P25942); experiment: Biacore3000 surface plasmon resonance study of the CD40/CD40L interaction and the ligands; type: binding
T2 construct: purchased ANCELL Corporation, Bayport, Minn
T2 sequence (P25942+P01863 fused): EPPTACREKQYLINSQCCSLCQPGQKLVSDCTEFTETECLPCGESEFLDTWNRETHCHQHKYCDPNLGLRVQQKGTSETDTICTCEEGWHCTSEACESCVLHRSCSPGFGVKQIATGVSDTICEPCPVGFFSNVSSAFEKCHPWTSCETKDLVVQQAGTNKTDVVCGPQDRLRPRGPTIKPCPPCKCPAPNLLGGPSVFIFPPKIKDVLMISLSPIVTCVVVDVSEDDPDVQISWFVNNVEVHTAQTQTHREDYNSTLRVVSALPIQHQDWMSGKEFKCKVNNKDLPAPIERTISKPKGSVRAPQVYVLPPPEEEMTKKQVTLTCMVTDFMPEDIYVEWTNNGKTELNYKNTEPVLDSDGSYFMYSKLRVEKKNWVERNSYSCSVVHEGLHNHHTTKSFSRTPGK
Excerpt: The Biacore3000 is a device which allows the interactions between two molecules to be studied, based on the surface plasmon resonance. It allows measurement in real time, and therefore allows the kinetics of interaction (association and disassociation) of an analyte (which is in an injected solution) and of a ligand (immobilised on a microchip supporting the measurement) to be monitored. The kinetic measurements at different concentrations of analyte allow calculation of the affinity constants of the interaction between the ligand and the analytes. The microchip contains four cells for different measurements, which allows direct comparison of a reference cell on which a protein which is not pertinent (protein which has no affinity with the ligand studied), but close to the ligand is immobilised with the cell on which the ligand is immobilised.
Rabbit antibodies directed against the constant region of mouse immunoglobulins were immobilized on a microchip. In the reference cell a monoclonal mouse antibody of isotype IgG2a (LG112) at 40 nM is immobilized with a flow of 5 μL/min for 2 minutes; in the cell of the ligand the recombinant CD40 associated with the constant region of the mouse IgG2a heavy chain (human CD40 muIg fusion protein, ANCELL Corporation, Bayport, Minn.) is immobilized under the same conditions.
On the two cells (reference and ligand), the CD40L (human CD154 muCD8 fusion protein, ANCELL Corporation) at different concentrations or the CD40L at a concentration of 1 μM or of 125 nM, are injected, as analyte, in the presence of different concentrations of ligands. The flow in the presence of the analytes is 10 μL/min for 5 minutes to study the association and, in the absence of analytes, the conditions are the same to study the dissociation.
In order to regenerate the cells (i.e. remove all the proteins adsorbed in a non-covalent manner), a solution of 10 mM of HCl is injected at 5 μL/min for 1 minute. The cells are then ready for another analysis.

[2] = tested on: BL41 Burkitt's lymphoma cells; experiment: Inhibition of proliferation of BL41 cells (incorporation of tritiated thymidine); type: cell-based; conditions: 24 hours culture, FIG. 4A, 50 μM to 50 nM
Protocol: Tritiated thymidine was added at a concentration of 1 μci/well (0.8.10^5 cells/well) for the last 8 hours of culture and the incorporation of tritiated thymidine measured using a gaseous scintillation β counter.
The second test is based on the property of certain B lymphomas to cease proliferation and enter apoptosis during the bridging of their membranous CD40 molecule (Tong et al., 1999). In this test, the BL41 cells are incubated with ligands CD40 and after 24 hours either the inhibition of proliferation of these cells is measured, by studying the incorporation of tritiated thymidine, or the percentage of apoptotic cells is measured with a flow cytometry study (FIGS. 4A and 4B).
Certain B lymphomas enter apoptosis when their CD40 molecule is bridged by an anti-CD40 antibody or by CD40L which is soluble independently from the CD95 molecule. This induction of apoptosis is expressed as a decrease in proliferation measured by the incorporation of tritiated thymidine. The agonist ligands of CD40 will induce an increase in apoptosis and as a result a decrease in the incorporation of tritiated thymidine.
The BL41 Burkitt's lymphoma cells (4.10^5/mL) are cultured in the presence of the different ligands at the chosen concentration. After 24 hours, the cells are either incubated for 8 hours with tritiated thymidine (1 μci/well) to measure the proliferation or are labelled with Annexin V-FITC and propidium iodide to evaluate the percentage of apoptotic cells with flow cytometry.

[3] = target: CD40 molecule expressed constitutively by BL41 Burkitt's lymphoma cells (UniProt P25942); experiment: cell-based or functional assay
CD40 molecule expressed constitutively by BL41 Burkitt's lymphoma cells, sequence (P25942 21-277 limits assumed): as the sequence (P25942 21-277) above

Molecule: CC(=O)NCCCC[C@H](NC(C)=O)C(=O)NCCCCC(NC(C)=O)C(=O)NCCCC[C@H](NC(C)=O)C(=O)NCCCC[C@H](NC(C)=O)C(=O)N[C@@H](C)C(=O)O (stereo partly shown) [L2]
effect on the expression of CD95 induced by CD40L (in words) (CD40-CD40L interaction; BL41 cells in the presence of 3T6-CD40L cells, no concentration stated): no effect | % of inhibition of the expression of CD95 induced by CD40L (CD40-CD40L interaction; ligand 25 μM): 0% | % of inhibition of the expression of CD95 induced by CD40L (CD40-CD40L interaction; ligand 50 μM): 0% | % of inhibition of the expression of CD95 induced by CD40L (CD40-CD40L interaction; ligand 100 μM): 0%

IC50 ([1]; in the presence of 100 nM of CD40L, read-out: inhibition of 50% of the binding of CD40L (IC50)): < 50 nM | equilibrium constant compared with L4 ([1]; inferred from IC50, same conditions as L4): less than that of L4
Molecule: NCCCC[C@H](N)C(=O)NCC(=O)N[C@@H](Cc1ccc(O)cc1)C(=O)N[C@@H](Cc1ccc(O)cc1)C(=O)NCCCCCC(=O)NCCCC[C@H]1CC(=O)N[C@@H](CCCCNC(=O)CCCCCNC(=O)[C@H](Cc2ccc(O)cc2)NC(=O)[C@H](Cc2ccc(O)cc2)NC(=O)CNC(=O)[C@@H](N)CCCCN)CC(=O)N[C@@H](CCCCNC(=O)CCCCCNC(=O)[C@H](Cc2ccc(O)cc2)NC(=O)[C@H](Cc2ccc(O)cc2)NC(=O)CNC(=O)[C@@H](N)CCCCN)CC(=O)N1 [L9]

Molecule: C[C@H](NC(=O)[C@H](CCCCNC(=O)[C@H](CCCCNC(=O)[C@H](CCCCNC(=O)[C@H](CCCCNC(=O)[C@H](CCCNC(=N)N)NC(=O)[C@@H]1CCCN1C[C@@H](N)CCCCN)NC(=O)[C@H](CCCNC(=N)N)NC(=O)[C@@H]1CCCN1C[C@@H](N)CCCCN)NC(=O)[C@H](CCCNC(=N)N)NC(=O)[C@@H]1CCCN1C[C@@H](N)CCCCN)NC(=O)[C@H](CCCNC(=N)N)NC(=O)[C@@H]1CCCN1C[C@@H](N)CCCCN)NC(=O)[C@H](CCCNC(=N)N)NC(=O)[C@@H]1CCCN1C[C@@H](N)CCCCN)C(=O)O [L1]
% of inhibition of the expression of CD95 induced by CD40L (CD40-CD40L interaction; ligand 25 μM): 0% | % of inhibition of the expression of CD95 induced by CD40L (CD40-CD40L interaction; ligand 50 μM): 43% | % of inhibition of the expression of CD95 induced by CD40L (CD40-CD40L interaction; ligand 100 μM): 60% | Kd ([1]; analyte CD40L at 1 μM and L1 at 50 μM, read-out: equilibrium constant): > 50000 nM

Molecule: L7-2: L7 analogue with the reverse sequence H-Tyr-Tyr-Gly-Lys- (YYGK)
inhibition of the proliferation of BL41 cells (in words) [2]: only have a small or no effect

Molecule: L12: from linear 8-B core coupled with pentapeptide 1-A; linear version of L9 (chain Lys-Lys-Lys; peptide KGYY; not fully specified (some residues, C-terminus); also: peptide (pentapeptide 1-A) coupled to linear core 8-B, linkage and core structure not given here)
binding to CD40 and displacement of CD40L (in words) ([1]; in the presence of 100 nM of CD40L): Only the L4 and L9 molecules bind to CD40

Molecule: C[C@H](NC(=O)[C@H](CCCCNC(=O)[C@H](CCCCNC(=O)[C@H](CCCCNC(=O)[C@H](CCCCNC(=O)[C@H](Cc1ccc(O)cc1)NC(=O)[C@H](Cc1ccc(O)cc1)NC(=O)CNC(=O)[C@@H](N)CCCCN)NC(=O)[C@H](Cc1ccc(O)cc1)NC(=O)[C@H](Cc1ccc(O)cc1)NC(=O)CNC(=O)[C@@H](N)CCCCN)NC(=O)[C@H](Cc1ccc(O)cc1)NC(=O)[C@H](Cc1ccc(O)cc1)NC(=O)CNC(=O)[C@@H](N)CCCCN)NC(=O)[C@H](Cc1ccc(O)cc1)NC(=O)[C@H](Cc1ccc(O)cc1)NC(=O)CNC(=O)[C@@H](N)CCCCN)NC(=O)[C@H](Cc1ccc(O)cc1)NC(=O)[C@H](Cc1ccc(O)cc1)NC(=O)CNC(=O)[C@@H](N)CCCCN)C(=O)O [L3] (I: H-KGYYKA-OH / II: H-KGYYK([Tyr-Tyr-Gly-Lys]) / III: H-KGYYK / IV: H-KGYYK; amide I:5-IV:C, II:C-III:5, III:C-IV:5)
% of inhibition of the expression of CD95 induced by CD40L (CD40-CD40L interaction; ligand 5 μM): 0% | % of inhibition of the expression of CD95 induced by CD40L (CD40-CD40L interaction; ligand 10 μM): 13% | % of inhibition of the expression of CD95 induced by CD40L (CD40-CD40L interaction; ligand 25 μM): 25% | % of inhibition of the expression of CD95 induced by CD40L (CD40-CD40L interaction; ligand 50 μM): 62% | % of inhibition of the expression of CD95 induced by CD40L (CD40-CD40L interaction; ligand 100 μM): 60%

Molecule: L7-3: L7 analogue: replacement of the aminohexanoic acid spacer arm by a glycine (KGYYG; not fully specified (C-terminus); also: L7 analogue: aminohexanoic acid spacer replaced by glycine, core as L7)
inhibition of the proliferation of BL41 cells (in words) [2]: only have a small or no effect

Kd ([1]; 4 concentrations of CD40L from 62.5 to 500 nM, read-out: equilibrium constant of CD40L for CD40): 54 nM
B1: CD40L: human CD154 muCD8 fusion protein, ANCELL Corporation (protein)
chain: KPQAPELRIFPKKMDAELGQKVDLVCEVLGSVSQGCSWLFQNSSSKLPQPTFVVYMASSHNKITWDEKLNSSKLFSAMRDTNNKYVLTLNKFSKENEGYYFCSVISNSVMYFSSVVPVLQKVNSTTTKPVLRTPSPVHPTGTSQPQRPEDCRPRGSVKGTGLDFACDIYHRRLDKIEDERNLHEDFVFMKTIQRCNTGERSLSLLNCEEIKSQFEGFVKDIMLNKEETKKENSFEMQKGDQNPQIAAHVISEASSKTTSVLQWAEKGYYTMSNNLVTLENGKQLTVKRQGLYYIYAQVTFCSNREASSQAPFIASLCLKSPGRFERILLRAANTHSSAKPCGQQSIHLGGVFELQPGASVFVNVTDPSQVSHGTGFTSFGLLKL

% of inhibition of the expression of CD95 induced by CD40L, ligand at 0.5 µM [3]: 0% | % of inhibition of the expression of CD95 induced by CD40L, ligand at 5 µM [3]: 8% | % of inhibition of the expression of CD95 induced by CD40L, ligand at 50 µM [3]: 13%
B2: Compound L4a (ligand L4a): same core molecule as L4 with only 2 examples of the peptide sequence (peptide)
chain: [dA]K[dA]K[dA]K
peptide: H-KGYY[Ahx]
modifications: also: two copies of chain 2 linked via Ahx to epsilon-amines of two core Lys, which Lys not given here, further groups not given here, head-to-tail to a chain's N/C-terminus

% of inhibition of the expression of CD95 induced by CD40L, ligand at 25 µM [3]: 0% | % of inhibition of the expression of CD95 induced by CD40L, ligand at 50 µM [3]: 0% | % of inhibition of the expression of CD95 induced by CD40L, ligand at 100 µM [3]: 0%
B3: Compound L2 (ligand L2), core structure of the ligands L1 and L3 (peptide)
chain: KKKKA
modifications: also: four Lys joined through epsilon-amines (isopeptide bonds), free amine groups acetylated
